From patent publication US20070043108A1, “Use of equol for ameliorating or preventing neuropsychiatric and neurodegenerative diseases or disorders” (priority 2002, published 2007)
Where two headings read alike, the source gives them in different places.

Experiments:
AR = molecular target: T1, AR (Rattus norvegicus, UniProt P15207); test: Binding to the androgen receptor (prostate supernatant, [3H]DHT)
T1 construct: incubated with prostate supernatant and then passed through the 30 cm column; from tissue; host or cells: prostate supernatant
T1 sequence (P15207 1-902): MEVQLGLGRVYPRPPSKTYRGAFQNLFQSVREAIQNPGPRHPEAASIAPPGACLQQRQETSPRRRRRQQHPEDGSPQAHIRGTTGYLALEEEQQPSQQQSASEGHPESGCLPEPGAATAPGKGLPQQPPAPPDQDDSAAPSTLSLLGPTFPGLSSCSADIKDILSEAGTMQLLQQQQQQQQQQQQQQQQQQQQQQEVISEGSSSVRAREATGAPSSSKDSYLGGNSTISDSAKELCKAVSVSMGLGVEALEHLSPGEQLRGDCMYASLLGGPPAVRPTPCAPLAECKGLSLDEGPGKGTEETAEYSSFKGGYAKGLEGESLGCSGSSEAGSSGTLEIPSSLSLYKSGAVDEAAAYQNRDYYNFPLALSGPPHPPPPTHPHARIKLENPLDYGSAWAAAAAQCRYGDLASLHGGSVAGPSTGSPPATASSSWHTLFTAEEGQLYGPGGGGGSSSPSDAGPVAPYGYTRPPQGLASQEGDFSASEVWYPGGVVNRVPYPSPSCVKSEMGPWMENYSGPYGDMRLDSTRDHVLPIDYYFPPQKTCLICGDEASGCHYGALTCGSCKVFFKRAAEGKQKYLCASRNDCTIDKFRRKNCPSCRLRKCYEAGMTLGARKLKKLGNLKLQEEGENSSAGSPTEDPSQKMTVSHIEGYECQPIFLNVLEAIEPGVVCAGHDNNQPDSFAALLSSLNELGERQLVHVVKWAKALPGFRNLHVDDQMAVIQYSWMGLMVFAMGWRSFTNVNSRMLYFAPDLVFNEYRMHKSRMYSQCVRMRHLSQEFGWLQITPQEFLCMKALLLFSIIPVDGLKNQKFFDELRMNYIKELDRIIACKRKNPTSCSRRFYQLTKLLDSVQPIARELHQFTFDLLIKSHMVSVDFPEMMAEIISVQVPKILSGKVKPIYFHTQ

[1] = tested on: Adult male Sprague-Dawley rats; test: Example 15: elevated plus maze of equol injected male rats; assay type: in vivo, rat; conditions: 0.250 mg/Kg/day sc, seven days, n = 8
Excerpt: The elevated plus maze is a behavioral test used to quantify anxiety-related behavior and identify anxiolytic drugs (Pellow S. et al., J Neurosci Methods, 14:149-147 (1985); Current Protocols In Neuroscience (1997) 8.3.1-8.3.15, John Wiley & Sons. NY, N.Y.). The test relies on the inherent conflict between exploration of a novel environment and avoidance of its aversive features. Normally, animals spend little time and make few entries into the open arms of the maze compared to the closed arms of the maze (Imhof J. T. et al., Behav Brain Res, 56:177-180 (1993). However, animals treated with anxiolytics, such as benzodiazepines (valium), spend more time in the open arms and the number of entries into the open arms reflects a decrease in anxiety-related behaviors (Pellow S. et al., J Neurosci Methods, 14:149-147 (1985); Current Protocols In Neuroscience (1997) 8.3.1-8.3.15, John Wiley & Sons. NY, N.Y.; Chopin P. et al., Psychopharm, 110:409-414 (1993).
Adult male Sprague-Dawley rats receive daily injections of either DMSO, racemic equol (0.250 mg/Kg/day), R-equol (0.250 mg/Kg/day), or S-equol (0.250 mg/Kg/day) in a total volume of 0.3 cc DMSO by subcutaneous injection. At the end of seven consecutive days of treatment the animals are tested in the elevated plus maze in order to quantify anxiety-related behaviors.

[2] = tested on: Adult male Sprague-Dawley rats; test: Example 3: prostate, epididymis and body weight gain in male rats treated with racemic, R- or S-equol; assay type: in vivo, rat; conditions: for Body Wt Gain (g) / Epididymis (g) / Prostate (g): 0.25 mg/kg/day sc, seven days
Experimental: Adult male Sprague-Dawley rats are randomly assigned to […] groups and receive daily injections of either DMSO, a racemic mixture of equol at 0.250 mg/kg/day), R-equol at 0.250 mg/kg/day, or S-equol at 0.250 mg/kg/day. The total volume of each injection is 0.3 cc, administered sc at the nape of the rat's neck. After seven consecutive days of treatment, the rats are killed and the body weight gain during the injection period is determined.

[3] = tested on: adult Long-Evans male rats; test: Example 18: elevated plus maze, body weight and hypothalamic volumes in adult male rats treated with equol; assay type: in vivo, rat
Excerpt: In this study, anxiety-related behaviors were examined along with hormone levels in adult Long-Evans male rats exposed to equol. A known and accepted animal behavioral test for psychiatric disorders in humans, such as elevated plus maze (EPM) was used for this purpose (P. Willner, in Behavioral Models in Psychopharmacology: Theoretical, Industrial and Clinical Perspectives, New York, Cambridge Univ. Press, 1991; M. A. Geyer & A. Markou, in Psychopharmacology: The Fourth Generation of Progress, NY, Raven Press, pp. 787-798, 1995; and R. Hitzemann, Alcohol & Res. Health, 24: 149-158, 2000).
The EPM test relies on the inherent conflict between exploration of a novel environment and avoidance of its aversive features. Typically, animals spend little time and make few entries into the open arms (new environment) compared to the closed arms of the maze (secure environment). For example, an anti-anxiety agent or drug would increase the number of entries into and total time spent in the open arms of the maze.
Male rats 50 days of age were given a diet low in phytoestrogens (10 ppm of isoflavones) and remained on this diet until 215 days of age. At 150 days of age the rats were age and body weight matched and then divided into control or equol treatment groups. Starting at 190 days, the male rats received daily subcutaneous (0.1 cc) injections of control vehicle (DMSO) or equol (2.5 mg/Kg) for 25 consecutive days.
After 15 days on the treatments the animals were tested in the EPM that was video-taped for 3 minutes and later recorded for the number of entries into—and the percentage of total time spent—on the open arms via AnyMaze® computer software.
At 215 days of age the animals were sacrificed and body/prostate weights, serum hormone and isoflavone levels were determined along with determining the volume of hypothalamic regions that are sensitive to hormones.
The brains were processed via standard staining and analyzed via Bioquant® for morphometric SDN and AVPV parameters by treatments.

[4] = 25 consecutive days, n = 4, not significant vs control
[5] = after 15 days of treatment, vs controls

| binding to the androgen receptor (AR; listed as Equol racemic) | Compound | binding to the androgen receptor (AR) | Center Area [1] | Open Arm Time [1] | Body Wt Gain (g) [2] | Epididymis (g) [2] | Prostate (g) [2] | AVPV Volumes [3, 4] | SDN Volumes [3, 4] | number of entries into the open arms of the EPM [3, 5] | time spent on the open arms of the EPM [3, 5] | body weights ([3]; equol 2.5 mg/Kg sc daily for 25 days, vs control) | serum equol levels ([3]; equol-treated animals) | decrease in body weight ([2]; equol experiments) | reduction in white adipose tissue deposition ([2]; racemic equol injections) |
| --- | --- | --- | --- | --- | --- | --- | --- | --- | --- | --- | --- | --- | --- | --- | --- |
| – | Oc1ccc([C@@H]2COc3cc(O)ccc3C2)cc1 [R-equol] | does not bind the androgen receptor | 36.4 ± 7.6 s | 50.0 ± 10.0 s | 45.6 (±5.5) g | 0.85 (±0.04) g | 0.31 (±0.02) g | – | – | – | – | – | – | – | – |
| does not bind the androgen receptor | Oc1ccc(C2COc3cc(O)ccc3C2)cc1 (racemic) [equol, 7-hydroxy-3(4′hydroxyphenyl)-chroman] | does not compete with 5α-DHT for the AR | 37.1 ± 6.3 s | 40.9 ± 7.0 s | 56.1 (±3.7) g | 0.89 (±.03) g | 0.38 (±0.02) g | 10.59 ± 1.6 mm^3 × 10^−3 | 46.3 ± 3.1 mm^3 × 10^−3 | significantly greater | significantly greater | significantly decreased | equivalent to consuming a phytoestrogen-rich soy diet | around 10% | around 36% |
